Data reported in PubChem BioAssay AID2060620 (Molecular Pharmacology Branch, DTP, NCI, 2025).

Test system: 328373-195-R-J1-PDC complex spheroids, viability % test/control
Assay: Anticancer human tumor 328373-195-R-J1-PDC patient-derived head and neck squamous carcinoma cell line growth inhibition [CLK]
Settings: for IC50: curve of first compound; for viability, T/C: stronger effect = lower value
Summary of the method: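 Multi-cell-type spheroids combined patient-derived tumor cells with HUVEC endothelial cells and human mesenchymal stem cells. Paired agents were dosed in half-log steps down from about clinical Cmax, or from 10 microM where Cmax was unknown.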

[1] = second compound 0.0316 µM, first compound 0.0316 µM
[2] = second compound 0.0316 µM, first compound 0.1 µM
[3] = second compound 0.0316 µM, first compound 0.316 µM
[4] = second compound 0.0316 µM, first compound 1 µM
[5] = second compound 0.0316 µM, first compound 3.16 µM
[6] = second compound 0.0316 µM, first compound 10 µM
[7] = second compound 0.1 µM, first compound 0.0316 µM
[8] = second compound 0.1 µM, first compound 0.1 µM
[9] = second compound 0.1 µM, first compound 0.316 µM
[10] = second compound 0.1 µM, first compound 1 µM
[11] = second compound 0.1 µM, first compound 3.16 µM
[12] = second compound 0.1 µM, first compound 10 µM
[13] = second compound 0.316 µM, first compound 0.0316 µM
[14] = second compound 0.316 µM, first compound 0.1 µM
[15] = second compound 0.316 µM, first compound 0.316 µM
[16] = second compound 0.316 µM, first compound 1 µM
[17] = second compound 0.316 µM, first compound 3.16 µM
[18] = second compound 0.316 µM, first compound 10 µM
[19] = second compound 1 µM, first compound 0.0316 µM
[20] = second compound 1 µM, first compound 0.1 µM
[21] = second compound 1 µM, first compound 0.316 µM
[22] = second compound 1 µM, first compound 1 µM
[23] = second compound 1 µM, first compound 3.16 µM
[24] = second compound 1 µM, first compound 10 µM
[25] = second compound 3.16 µM, first compound 0.0316 µM
[26] = second compound 3.16 µM, first compound 0.1 µM
[27] = second compound 3.16 µM, first compound 0.316 µM
[28] = second compound 3.16 µM, first compound 1 µM
[29] = second compound 3.16 µM, first compound 3.16 µM
[30] = second compound 3.16 µM, first compound 10 µM
[31] = second compound 10 µM, first compound 0.0316 µM
[32] = second compound 10 µM, first compound 0.1 µM
[33] = second compound 10 µM, first compound 0.316 µM
[34] = second compound 10 µM, first compound 1 µM
[35] = second compound 10 µM, first compound 3.16 µM
[36] = second compound 10 µM, first compound 10 µM
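Also: spheroids exposed to the agents for 7 days.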

CC(=O)O[C@H]1C(=O)[C@@]2(C)[C@H]([C@H](OC(=O)c3ccccc3)[C@]3(O)C[C@H](OC(=O)[C@H](O)[C@@H](NC(=O)c4ccccc4)c4ccccc4)C(C)=C1C3(C)C)[C@]1(OC(C)=O)CO[C@@H]1C[C@@H]2O + CNC(=O)c1ccc(Nc2nc(OC3CCCC3)c3c(-c4ccc5nc(C)oc5c4)c[nH]c3n2)c(OC)c1
IC50 (second compound 0.0316 µM): < 31.6 nM | IC50 (second compound 0.1 µM): < 31.6 nM | IC50 (second compound 0.316 µM): < 31.6 nM | IC50 (second compound 1 µM): < 31.6 nM | IC50 (second compound 3.16 µM): < 31.6 nM | IC50 (second compound 10 µM): < 31.6 nM | viability, T/C [1]: 11.7% | viability, T/C [2]: 7.56% | viability, T/C [3]: 14% | viability, T/C [4]: 13.7% | viability, T/C [5]: 12.7% | viability, T/C [6]: 22% | viability, T/C [7]: 20.2% | viability, T/C [8]: 22.9% | viability, T/C [9]: 18.8% | viability, T/C [10]: 26.1% | viability, T/C [11]: 25.2% | viability, T/C [12]: 29.1% | viability, T/C [13]: 21.1% | viability, T/C [14]: 23.5% | viability, T/C [15]: 24.7% | viability, T/C [16]: 29.3% | viability, T/C [17]: 32.1% | viability, T/C [18]: 29.8% | viability, T/C [19]: 21% | viability, T/C [20]: 24% | viability, T/C [21]: 27% | viability, T/C [22]: 30.8% | viability, T/C [23]: 36.7% | viability, T/C [24]: 28% | viability, T/C [25]: 22.2% | viability, T/C [26]: 27.2% | viability, T/C [27]: 29.8% | viability, T/C [28]: 32.7% | viability, T/C [29]: 37.1% | viability, T/C [30]: 33.9% | viability, T/C [31]: 20% | viability, T/C [32]: 28.6% | viability, T/C [33]: 30.5% | viability, T/C [34]: 36.7% | viability, T/C [35]: 42.3% | viability, T/C [36]: 36%

CCc1c2c(nc3ccc(O)cc13)-c1cc3c(c(=O)n1C2)COC(=O)[C@]3(O)CC + CNC(=O)c1ccc(Nc2nc(OC3CCCC3)c3c(-c4ccc5nc(C)oc5c4)c[nH]c3n2)c(OC)c1
IC50 (second compound 0.0316 µM): < 3.16 nM | IC50 (second compound 0.1 µM): < 3.16 nM | IC50 (second compound 0.316 µM): < 3.16 nM | IC50 (second compound 1 µM): < 3.16 nM | IC50 (second compound 3.16 µM): < 3.16 nM | IC50 (second compound 10 µM): < 3.16 nM | viability, T/C (second compound 0.0316 µM, first compound 0.00316 µM): 7.71% | viability, T/C (second compound 0.0316 µM, first compound 0.01 µM): 1.63% | viability, T/C [1]: 2.84% | viability, T/C [2]: 0.67% | viability, T/C [3]: 0.38% | viability, T/C [4]: 0.09% | viability, T/C (second compound 0.1 µM, first compound 0.00316 µM): 7.73% | viability, T/C (second compound 0.1 µM, first compound 0.01 µM): 1.04% | viability, T/C [7]: 2.54% | viability, T/C [8]: 0.41% | viability, T/C [9]: 1.87% | viability, T/C [10]: 2.57% | viability, T/C (second compound 0.316 µM, first compound 0.00316 µM): 7.15% | viability, T/C (second compound 0.316 µM, first compound 0.01 µM): 3.14% | viability, T/C [13]: 1.9% | viability, T/C [14]: 0.39% | viability, T/C [15]: 1.85% | viability, T/C [16]: 0.68% | viability, T/C (second compound 1 µM, first compound 0.00316 µM): 5.68% | viability, T/C (second compound 1 µM, first compound 0.01 µM): 1.49% | viability, T/C [19]: 1.06% | viability, T/C [20]: 0.86% | viability, T/C [21]: 0.2% | viability, T/C [22]: 1.91% | viability, T/C (second compound 3.16 µM, first compound 0.00316 µM): 9.03% | viability, T/C (second compound 3.16 µM, first compound 0.01 µM): 2.69% | viability, T/C [25]: 1.66% | viability, T/C [26]: 0.35% | viability, T/C [27]: 1.13% | viability, T/C [28]: 1.82% | viability, T/C (second compound 10 µM, first compound 0.00316 µM): 10.2% | viability, T/C (second compound 10 µM, first compound 0.01 µM): 1.94% | viability, T/C [31]: 1.92% | viability, T/C [32]: 0.95% | viability, T/C [33]: 2.93% | viability, T/C [34]: 1.05%

COc1ccc([C@@H](O)c2cc(-c3ncnc4cc(N5CCOCC5)ccc34)c(F)cc2Cl)nn1 + CNC(=O)c1ccc(Nc2nc(OC3CCCC3)c3c(-c4ccc5nc(C)oc5c4)c[nH]c3n2)c(OC)c1
IC50 (second compound 0.0316 µM): 3760 nM | IC50 (second compound 0.1 µM): < 31.6 nM | IC50 (second compound 0.316 µM): < 31.6 nM | IC50 (second compound 1 µM): < 31.6 nM | IC50 (second compound 3.16 µM): < 31.6 nM | IC50 (second compound 10 µM): < 31.6 nM | viability, T/C [1]: 51.2% | viability, T/C [2]: 56.5% | viability, T/C [3]: 43.4% | viability, T/C [4]: 58.7% | viability, T/C [5]: 55.4% | viability, T/C [6]: 33.3% | viability, T/C [7]: 10.5% | viability, T/C [8]: 8.48% | viability, T/C [9]: 12.4% | viability, T/C [10]: 10% | viability, T/C [11]: 9.78% | viability, T/C [12]: 12.6% | viability, T/C [13]: 8.21% | viability, T/C [14]: 8.88% | viability, T/C [15]: 8.95% | viability, T/C [16]: 7.72% | viability, T/C [17]: 10.2% | viability, T/C [18]: 12.2% | viability, T/C [19]: 10.3% | viability, T/C [20]: 8.67% | viability, T/C [21]: 10.8% | viability, T/C [22]: 9.89% | viability, T/C [23]: 9.31% | viability, T/C [24]: 12.8% | viability, T/C [25]: 9.71% | viability, T/C [26]: 9.31% | viability, T/C [27]: 9.23% | viability, T/C [28]: 9.82% | viability, T/C [29]: 10.5% | viability, T/C [30]: 13.2% | viability, T/C [31]: 10.6% | viability, T/C [32]: 10.8% | viability, T/C [33]: 8.9% | viability, T/C [34]: 13.1% | viability, T/C [35]: 12.2% | viability, T/C [36]: 12.5%

COc1cccc2c1C(=O)c1c(O)c3c(c(O)c1C2=O)CC(O)(C(=O)CO)CC3OC1CC(N)C(O)C(C)O1 (stereo not drawn) + CNC(=O)c1ccc(Nc2nc(OC3CCCC3)c3c(-c4ccc5nc(C)oc5c4)c[nH]c3n2)c(OC)c1
IC50 (second compound 0.0316 µM): < 31.6 nM | IC50 (second compound 0.1 µM): < 31.6 nM | IC50 (second compound 0.316 µM): < 31.6 nM | IC50 (second compound 1 µM): < 31.6 nM | IC50 (second compound 3.16 µM): < 31.6 nM | IC50 (second compound 10 µM): < 31.6 nM | viability, T/C [1]: 12.6% | viability, T/C [2]: 4.2% | viability, T/C [3]: 0.6% | viability, T/C [4]: 0.17% | viability, T/C [5]: 0.12% | viability, T/C [6]: 3.04% | viability, T/C [7]: 8.2% | viability, T/C [8]: 3.67% | viability, T/C [9]: 0.55% | viability, T/C [10]: 0.13% | viability, T/C [11]: 0.09% | viability, T/C [12]: 4.34% | viability, T/C [13]: 8.9% | viability, T/C [14]: 3.98% | viability, T/C [15]: 0.5% | viability, T/C [16]: 0.07% | viability, T/C [17]: 0.07% | viability, T/C [18]: 1.96% | viability, T/C [19]: 8.51% | viability, T/C [20]: 2.74% | viability, T/C [21]: 1.07% | viability, T/C [22]: 0.06% | viability, T/C [23]: 0.07% | viability, T/C [24]: 4.59% | viability, T/C [25]: 11.5% | viability, T/C [26]: 3.82% | viability, T/C [27]: 0.22% | viability, T/C [28]: 0.06% | viability, T/C [29]: 0.93% | viability, T/C [30]: 2.69% | viability, T/C [31]: 12.1% | viability, T/C [32]: 1.9% | viability, T/C [33]: 0.16% | viability, T/C [34]: 0.1% | viability, T/C [35]: 0.6% | viability, T/C [36]: 2.6%
